This note sets out measurements from patent US20220331435A1, “PROTAC SMALL MOLECULE COMPOUND AND USE THEREOF” (ZHUHAI YUFAN BIOTECHNOLOGIES CO., LTD, priority 2019, published 2022).

Molecules are shown by their SMILES. Like-named read-outs stand apart in the source and are kept apart here.

What all share (format): cell-based
Assay [1] deals with T1, HPK1 (Homo sapiens, UniProt Q92918).
T1 construct: endogenous in cells; host or cells: Jurkat cells
Put plainly: HPK1 degradation in Jurkat cells (Western blot). The conditions noted are these: for Degradation rate (10 nM) / Degradation rate (100 nM): HPK1, treatment time 12 h; for Degradation rate (10 nM): compound 10 nM; for Degradation rate (12 h): 12 h (Table 2); for HPK1 degradation rate at 0.1 µM: Jurkat, treatment time 6 h. The method, then:
(§1) S1: Jurkat cells were resuscitated, and then subjected to adherent culture for 12 h, compounds were added, the compound concentrations were fixed (treatment time was 0 h, 3 h, 6 h, 12 h, 24 h and 72 h) or the treatment time was fixed (compound concentrations were 0 nM, 1 nM, 10 nM, 100 nM and 1000 nM);
(§2) S2: the culture solution was poured out, the cells were washed with 3 mL of PBS pre-cooled at 4° C., then the washing solution was discarded, an appropriate amount of lysis solution containing PMSF (100×) was added according to the cell amount, the mixture was uniformly mixed, then placed on ice for lysis for 30 min, and centrifuged at 12000 rpm and at 4° C. for 5 min, (a centrifuge was started for pre-cooling in advance), and the centrifuged supernatant was transferred into a new centrifuge tube and prepared for quantification;
(§3) S3: an BCA quantitative reagent of Pierce™ BCA Protein Assay Kit (23225) was added at 200 uL/well, then 20 uL of BSA with known different concentrations was added to prepare a protein quantitative standard curve and a sample protein to be detected with avoiding generation of bubbles, the mixture was incubated for 30 min in the dark at 37° C., an OD value was measured at 562 nm, then an appropriate amount of SDS-PAGE loading buffer was added to the protein sample, and the reaction mixture was heated for 5 min in a boiling water bath to fully denature the protein, and stored at −20° C. for later use;
(§4) S4: an SDS-PAGE gel was prepared, wherein the voltage of a concentrated gel was 90 V, and the voltage of a separation gel was 120 V, a membrane was transferred for 1 h at 4° C. and at a voltage of 100 V, after the membrane was transferred, the protein membrane was immediately placed in a prepared 5% BSA solution, and the mixture was slowly shaken on a shaker, and sealed for 1 h at room temperature;
(§5) S5: the primary antibody was diluted according to an appropriate proportion according to the specifications of HPK1 Antibody (4472S CST), GLK (D1L4G) Rabbit mAb (92427S CST), SLP-76 (D1R1A) Rabbit mAb (70896S CST), Phospho-SLP-76 (Ser376) (D7S1K) XP® Rabbit mAb (92711T CST) and β-actin Mouse Monoclonal antibody (BE0021 easybio), then incubated overnight with slow shaking at 4° C., and washed 3 times with PBST for 10 min/time;
(§6) S6: Goat Anti-Rabbit IgG (H&L)-HRP Conjugated (BE0101 easybio) or Goat Anti-Mouse IgG (H&L)-HRP Conjugated (BE0102 easybio) was selected according to the primary antibody, and the secondary antibody was diluted according to an appropriate proportion according to the specification of the secondary antibody, then incubated for 1 h at room temperature with slow shaking, and washed 3 times with PBST for 10 min/time; and
(§7) S7: an ECL luminescence was added, the results were observed by a developing machine, Western results were quantified using Image J software, and the degradation rates (HPK1 and GLK) or inhibition rates (SLP76 Ser376 phosphorylation) were calculated by comparison with a control group to which no compounds were added, (degradation rate/inhibition rate=1−administration group/control group).

For assay [2], the system named is SLP76 Ser376 phosphorylation. Put plainly: Inhibition of SLP76 Ser376 phosphorylation in Jurkat cells (Western blot). The conditions noted are these: Homo sapiens, compound 100 nM. As to the method: as §1, §2, §3, §4, §5, §6, §7
On the technique in general: A western blot detects proteins with antibodies after separation by electrophoresis.

The target of assay [3] is T1, HPK1. Description: HPK1 degradation in Jurkat cells (Western blot). The conditions noted are these: compound 100 nM.
The target in assay [4] is T2, GLK (Homo sapiens, UniProt Q8IVH8).
T2 construct: endogenous in cells; host or cells: Jurkat cells
T2 sequence (Q8IVH8 1-894): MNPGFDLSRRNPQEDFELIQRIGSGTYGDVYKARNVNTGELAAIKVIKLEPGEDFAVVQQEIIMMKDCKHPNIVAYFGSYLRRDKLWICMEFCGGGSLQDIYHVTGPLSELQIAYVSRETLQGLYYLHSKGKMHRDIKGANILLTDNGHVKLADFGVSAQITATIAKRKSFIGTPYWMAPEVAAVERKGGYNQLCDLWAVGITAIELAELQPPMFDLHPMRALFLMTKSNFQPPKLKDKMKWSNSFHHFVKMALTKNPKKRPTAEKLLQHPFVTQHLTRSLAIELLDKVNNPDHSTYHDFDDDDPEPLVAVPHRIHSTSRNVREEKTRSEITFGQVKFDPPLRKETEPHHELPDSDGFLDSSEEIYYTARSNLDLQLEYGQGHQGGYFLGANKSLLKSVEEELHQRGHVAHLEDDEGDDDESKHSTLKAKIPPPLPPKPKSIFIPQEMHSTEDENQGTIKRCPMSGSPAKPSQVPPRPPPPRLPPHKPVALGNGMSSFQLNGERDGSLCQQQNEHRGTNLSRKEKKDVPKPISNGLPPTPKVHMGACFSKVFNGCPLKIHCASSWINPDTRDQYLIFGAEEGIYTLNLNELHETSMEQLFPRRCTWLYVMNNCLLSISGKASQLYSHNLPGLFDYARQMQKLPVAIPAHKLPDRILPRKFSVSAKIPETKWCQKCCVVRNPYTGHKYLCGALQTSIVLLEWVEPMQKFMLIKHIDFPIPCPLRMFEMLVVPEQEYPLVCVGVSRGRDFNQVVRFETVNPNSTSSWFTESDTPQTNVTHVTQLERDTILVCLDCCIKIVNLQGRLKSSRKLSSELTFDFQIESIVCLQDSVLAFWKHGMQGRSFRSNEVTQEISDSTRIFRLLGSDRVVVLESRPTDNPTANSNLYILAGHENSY
Description: GLK degradation in Jurkat cells (Western blot). The conditions noted are these: treatment time 6 h, compound 100 nM. The method, then: as §1, §2, §3, §4, §5, §6, §7

The mark [5] stands for this setting: treatment time 6 h, read-out: SLP76 phosphorylation inhibition rate.

T1 sequence (Q92918 whole entry): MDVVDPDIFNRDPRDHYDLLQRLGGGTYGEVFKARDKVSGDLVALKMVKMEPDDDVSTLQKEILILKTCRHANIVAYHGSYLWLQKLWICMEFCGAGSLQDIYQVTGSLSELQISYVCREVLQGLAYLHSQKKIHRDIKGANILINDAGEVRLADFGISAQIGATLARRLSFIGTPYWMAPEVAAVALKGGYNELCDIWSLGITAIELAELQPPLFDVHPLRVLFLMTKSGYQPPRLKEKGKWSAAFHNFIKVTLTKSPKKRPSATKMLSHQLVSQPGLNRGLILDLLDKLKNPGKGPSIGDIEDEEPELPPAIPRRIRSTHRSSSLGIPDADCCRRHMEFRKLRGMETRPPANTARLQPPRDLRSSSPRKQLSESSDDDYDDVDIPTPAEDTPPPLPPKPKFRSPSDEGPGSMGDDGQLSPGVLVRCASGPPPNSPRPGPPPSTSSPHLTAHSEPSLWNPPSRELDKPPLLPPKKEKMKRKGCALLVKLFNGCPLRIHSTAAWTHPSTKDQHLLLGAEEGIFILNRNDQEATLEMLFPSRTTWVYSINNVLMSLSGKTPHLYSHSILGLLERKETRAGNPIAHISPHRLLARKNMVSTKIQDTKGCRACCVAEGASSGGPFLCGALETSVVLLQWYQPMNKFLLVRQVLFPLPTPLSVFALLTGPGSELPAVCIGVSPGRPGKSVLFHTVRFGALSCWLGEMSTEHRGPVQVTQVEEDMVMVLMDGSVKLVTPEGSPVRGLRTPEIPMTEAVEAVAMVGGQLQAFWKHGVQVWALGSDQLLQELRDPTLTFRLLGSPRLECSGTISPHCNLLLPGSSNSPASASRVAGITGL

On to `CC(C)(O)C#Cc1cccc(COc2cc(-c3cnc(C4CCN(C(=O)CCCCCCCOc5cccc6c5C(=O)N(C5CCC(=O)NC5=O)C6=O)CC4)s3)cnc2N)c1` (centres unmarked) [Compound C1], for which the “Degradation rate (10 nM)” value in assay [1] is recorded as 47%. Besides, the “Degradation rate (100 nM)” value in assay [1] (compound 100 nM) is reported as 68%.

For the compound `CN1C(=O)CCC(N2C(=O)c3cccc(OCCCCCCCC(=O)N4CCC(c5ncc(-c6cnc(N)c(OCc7cccc(C#CC(C)(C)O)c7)c6)s5)CC4)c3C2=O)C1=O` (centres unmarked) [Compound C2], the “Degradation rate (10 nM)” value in assay [1] worked out at 39%. Further, the “Degradation rate (100 nM)” value in assay [1] (compound 100 nM) stood at 33%.

What is called inhibition is the change of the read-out against control, counted positive when it falls. Turning to `CC(C)(O)C#Cc1cccc(COc2cc(-c3cnc(C4CCN(C(=O)CCCCCCCCCOc5cccc6c5C(=O)N(C5CCC(=O)NC5=O)C6=O)CC4)s3)cnc2N)c1` (centres unmarked) [Compound C3], the “Degradation rate (3 h)” value in assay [1] (HPK1, compound 100 nM, 3 h) is listed as 54%. Moreover, the “Degradation rate (6 h)” value in assay [1] (HPK1, compound 100 nM, 6 h) came out at 52%. For the same compound, in assay [1] (HPK1, compound 100 nM), the “Degradation rate (12 h)” value was 58% and the “Degradation rate (24 h)” value is on record as 3%. Further, the “Degradation rate (10 nM)” value in assay [1] was 15%. The “Degradation rate (100 nM)” value in assay [1] (compound 100 nM) came out at 75%. Moreover, the Dmax at 0.1 µM in assay [1] (compound 100 nM, maximum over different time points, read-out: Maximum degradation rate of HPK1) was found to be 62%. The inhibition at 0.1 µM in assay [2] (maximum over different time points, read-out: Maximum inhibition rate of SLP76 Ser376 phosphorylation) is 81%. Besides, in assay [3], the “Degradation rate (48 h)” value stood at 11%.

On to `CC(C)(O)C#Cc1cccc(COc2cc(-c3cnc(C4CCN(C(=O)CCOCCOCCOCCOCCOc5cccc6c5C(=O)N(C5CCC(=O)NC5=O)C6=O)CC4)s3)cnc2N)c1` (centres unmarked) [Compound C7], for which, in assay [1] (HPK1, compound 100 nM), the “Degradation rate (12 h)” value amounted to 58% and the “Degradation rate (24 h)” value was 86%. Further, the “Degradation rate (72 h)” value in assay [1] (HPK1, compound 100 nM, 72 h) is −9%. Further, in assay [1], the “Degradation rate (10 nM)” value was 72%. The “Degradation rate (100 nM)” value in assay [1] (compound 100 nM) is on record as 68%. The “Degradation rate (48 h)” value in assay [3] is listed as −40%.

Consider `CC(C)(O)C#Cc1cccc(COc2cc(-c3cnc(C4CCN(C(=O)CCOCCCCCOc5cccc6c5C(=O)N(C5CCC(=O)NC5=O)C6=O)CC4)s3)cnc2N)c1` (centres unmarked) [Compound C8], for which, in assay [1] (6 h, compound 100 nM), the HPK1 degradation rate at 0.1 µM came out at 66%. Further, in assay [4], the GLK degradation rate amounted to 34%. Besides, in assay [2] (setting [5]), the inhibition at 0.1 µM came out at 51%.

Regarding `CC(C)(O)C#Cc1cccc(COc2cc(-c3cnc(C4CCN(C(=O)CCOCCCCCCOc5cccc6c5C(=O)N(C5CCC(=O)NC5=O)C6=O)CC4)s3)cnc2N)c1` (centres unmarked) [Compound C9], the HPK1 degradation rate at 0.1 µM in assay [1] (6 h, compound 100 nM) turned out to be 46%. Further, the GLK degradation rate in assay [4] is −34%. The inhibition at 0.1 µM in assay [2] (setting [5]) stood at 61%.

As to `CC(C)(O)C#Cc1cccc(COc2cc(-c3cnc(C4CCN(C(=O)CCOCCCCCCCCOc5cccc6c5C(=O)N(C5CCC(=O)NC5=O)C6=O)CC4)s3)cnc2N)c1` (centres unmarked) [Compound C11], the HPK1 degradation rate at 0.1 µM in assay [1] (6 h, compound 100 nM) worked out at 30%. Besides, the GLK degradation rate in assay [4] is recorded as −36%.

For the compound `CC(C)(O)C#Cc1cccc(COc2cc(-c3cnc(C4CCN(C(=O)CCNC(=O)CCCOc5cccc6c5C(=O)N(C5CCC(=O)NC5=O)C6=O)CC4)s3)cnc2N)c1` (centres unmarked) [Compound C13], the HPK1 degradation rate at 0.1 µM in assay [1] (6 h, compound 100 nM) was found to be 38%. The GLK degradation rate in assay [4] is 43%. For the same compound, the inhibition at 0.1 µM in assay [2] (setting [5]) worked out at 4%.

Regarding `CC(C)(O)C#Cc1cccc(COc2cc(-c3cnc(C4CCN(C(=O)CCNC(=O)CCCCOc5cccc6c5C(=O)N(C5CCC(=O)NC5=O)C6=O)CC4)s3)cnc2N)c1` (centres unmarked) [Compound C14], in assay [1] (6 h, compound 100 nM), the HPK1 degradation rate at 0.1 µM turned out to be 58%. The GLK degradation rate in assay [4] is recorded as 60%. Further, the inhibition at 0.1 µM in assay [2] (setting [5]) is 26%.

As for `CC(C)(O)C#Cc1cccc(COc2cc(-c3cnc(C4CCN(C(=O)CCNC(=O)CCCCCOc5cccc6c5C(=O)N(C5CCC(=O)NC5=O)C6=O)CC4)s3)cnc2N)c1` (centres unmarked) [Compound C15], the HPK1 degradation rate at 0.1 µM in assay [1] (6 h, compound 100 nM) was -27%. The GLK degradation rate in assay [4] came to 38%. In assay [2] (setting [5]), the inhibition at 0.1 µM was -7%.

With `CC(C)(O)C#Cc1cccc(COc2cc(-c3cnc(C4CCN(C(=O)CCNC(=O)CCCCCCOc5cccc6c5C(=O)N(C5CCC(=O)NC5=O)C6=O)CC4)s3)cnc2N)c1` (centres unmarked) [Compound C16], the HPK1 degradation rate at 0.1 µM in assay [1] (6 h, compound 100 nM) came to 49%. In addition, in assay [4], the GLK degradation rate was 74%. Moreover, the inhibition at 0.1 µM in assay [2] (setting [5]) stood at 24%.

Take `CC(C)(O)C#Cc1cccc(COc2cc(-c3cnc(C4CCN(C(=O)C5CCN(C(=O)CCCCOc6cccc7c6C(=O)N(C6CCC(=O)NC6=O)C7=O)CC5)CC4)s3)cnc2N)c1` (centres unmarked) [Compound C17]: the HPK1 degradation rate at 0.1 µM in assay [1] (6 h, compound 100 nM) is -7%. The GLK degradation rate in assay [4] came to 42%. Also, the inhibition at 0.1 µM in assay [2] (setting [5]) worked out at 22%.

On to `CC(C)(O)C#Cc1cccc(COc2cc(-c3cnc(C4CCN(C(=O)C5CCN(C(=O)CCCCCOc6cccc7c6C(=O)N(C6CCC(=O)NC6=O)C7=O)CC5)CC4)s3)cnc2N)c1` (centres unmarked) [Compound C18], for which the HPK1 degradation rate at 0.1 µM in assay [1] (6 h, compound 100 nM) stood at 39%. Also, in assay [4], the GLK degradation rate amounted to 71%. Further, the inhibition at 0.1 µM in assay [2] (setting [5]) amounted to 34%.

In the case of `CC(C)(O)C#Cc1cccc(COc2cc(-c3cnc(C4CCN(C(=O)C5CCN(C(=O)CCCCCCOc6cccc7c6C(=O)N(C6CCC(=O)NC6=O)C7=O)CC5)CC4)s3)cnc2N)c1` (centres unmarked) [Compound C19], the inhibition at 0.1 µM in assay [2] (setting [5]) was determined as 3%.

`CC(C)(O)C#Cc1cccc(COc2cc(-c3cnc(C4CCN(C(=O)Cn5cc(COCCOc6cccc7c6C(=O)N(C6CCC(=O)NC6=O)C7=O)nn5)CC4)s3)cnc2N)c1` (centres unmarked) [Compound C20]: the “HPK1 degradation rate (12 h)” value in assay [1] (12 h (in-cell remark of Table 4), compound 100 nM) is reported as 41%. Moreover, in assay [1] (6 h, compound 100 nM), the HPK1 degradation rate at 0.1 µM is -15%. The GLK degradation rate in assay [4] was determined as 15%. The inhibition at 0.1 µM in assay [2] (setting [5]) was determined as 7%.
